Here are results for one compound from patent US20120040956A1, “INHIBITORS OF HIF-1 PROTEIN ACCUMULATION” (INTERMED DISCOVERY GMBH, priority 2008, published 2012).

pIC50: −log10 of the molar value.

In experiment [1] the test system is NHDF (fibroblast). The experiment is described as follows: NHDF (fibroblast) spheroid sprouting/scattering in 3D collagen gel. The format is cell-based. The conditions noted are these: Homo sapiens, 24 h, 3D collagen gel, read-out: IC50, NHDF fibroblast spheroid sprouting/scattering. As to the method:
Prior application the stock solution [100 mM] of IMD-019064 was diluted 1:10 in DMSO and serially diluted in half logarithmic steps covering the concentration range from 10 mM to 1 μM using 100% DMSO. The final assay concentration ranged from 100 μM to 10 nM with a final DMSO concentration in the assay of 1%. The experiments were pursued in modification of the originally published protocol (Korff and Augustin: J Cell Sci 112: 3249-58, 1999). In brief, spheroids were prepared as described by Korff and Augustin: J Cell Biol 143: 1341-52, 1998) by pipetting 500 endothelial cells (EC) in a hanging drop on plastic dishes to allow overnight spheroid aggregation. […]
Plates were incubated at 37° C. for 24 hours and fixed by adding 4% paraformaldehyde. The cumulative sprout length of 10 randomly selected spheroids per data point was analyzed and the relative inhibition by the test compound determined. […] Sprouting intensity of EC and fibroblast spheroids was quantitated by an image analysis system using an inverted microscope and the digital imaging software Analysis 3.2 (Soft imaging system, Munster, Germany). […] The cumulative sprout length of 10 randomly selected spheroids per data point was analyzed according to the procedure used for the HUVEC experiment. […]

The subject of experiment [2] is HUVEC. The experiment is described as follows: Spheroid-based angiogenesis assay, VEGF-A induced HUVEC sprouting. The format is cell-based, human. The protocol: As described in Example 4 HUVEC spheroids were generated, cultivated and embedded in a 3D collagen gel and stimulated with Vascular Endothelial Growth Factor alpha [VEGF-A; 25 ng/ml] instead of deferoxamine. Cell spheroids were treated for 24 h with different concentrations of IMD-026259; IMD-026260; Sutent® (Sunitinib) and Sorafenib (Nexavar®) (in Molar [M], as indicated in Table 4; see also FIG. 14A).
The cumulative sprout length of 10 randomly selected spheroids per data point was analyzed and the relative inhibition by the test compound determined. Fitting of IC50 curves and calculation of IC50 values was performed with GraphPad Prism® 5.01 (trademarked by GraphPad Software Inc.). […] Results from the examples described above are summarized in FIG. 14b IC50 values are given in nM for in vitro angiogenesis (HUVEC sprouting) studies after hypoxic or VEGF induction.

Experiment [3] has as its system HUVEC. Kind of experiment: Spheroid-based angiogenesis assay, Deferoxamine (hypoxia) induced HUVEC sprouting. The format is cell-based, human. The protocol: Prior application the stock solution [100 mM] of IMD-019064 was diluted 1:10 in DMSO and serially diluted in half logarithmic steps covering the concentration range from 10 mM to 1 μM using 100% DMSO. The final assay concentration ranged from 100 μM to 10 nM with a final DMSO concentration in the assay of 1%. The experiments were pursued in modification of the originally published protocol (Korff and Augustin: J Cell Sci 112: 3249-58, 1999). In brief, spheroids were prepared as described by Korff and Augustin: J Cell Biol 143: 1341-52, 1998) by pipetting 500 endothelial cells (EC) in a hanging drop on plastic dishes to allow overnight spheroid aggregation. 50 EC spheroids were then embedded in 0.9 ml of a 3D collagen matrix and pipetted into individual wells of a 24 well plate to allow polymerization.
Plates were incubated at 37° C. for 24 hours and fixed by adding 4% paraformaldehyde. The cumulative sprout length of 10 randomly selected spheroids per data point was analyzed and the relative inhibition by the test compound determined. Fitting of IC50 curves and calculation of IC50 values was performed with GraphPad Prism 5.01. Sprouting intensity of EC and fibroblast spheroids was quantitated by an image analysis system using an inverted microscope and the digital imaging software Analysis 3.2 (Soft imaging system, Munster, Germany). In parallel NHDF (fibroblast) spheroids were embedded in a 3D collagen gel and treated for 24 h with different concentrations of IMD-019064. The cumulative sprout length of 10 randomly selected spheroids per data point was analyzed according to the procedure used for the HUVEC experiment.
The same assays were performed with IMD-026260; IMD-026259; Sutent® (Sunitinib) and Sorafenib (Nexavar®) (see Table 3 for final compound concentrations).

For experiment [4], the system named is HIF-1α protein. Kind of experiment: Hypoxia induced HIF-1α protein accumulation in 293T cells (immunoblotting). The format is cell-based, human. As to conditions: 250 nM, 1 h preincubation, hypoxia 4 h, 1% O2. The protocol:
Effects of IMD-026259, IMD-026260 and IMD-019064 on the stabilisation/accumulation of HIF-1α protein were investigated. 293T cells were preincubated with the indicated concentrations of all three compounds. After 1 h of pre-incubation, 293T cells were pre-incubated with the indicated concentrations of compounds and then further incubated under normoxic or hypoxic (4 h, 1% O2) conditions respectively. After lysis of cells in 1×SDS sample buffer and sonication, the samples were analyzed for HIF-1α abundance by immunoblotting.

Experiment [5] concerns cell-free protein translation (BMV mRNA, ribosomes). The experiment is described as follows: Cell-free protein translation of Brome mosaic virus (BMV) mRNA with ribosomes. As to conditions: relevant (nM) concentrations, SDS-PAGE. The format is biochemical. As to the method:
The effect of IMD-019064 on cell-free protein translation in vitro was investigated (see also assay principle in FIG. 8). Brome mosaic virus (BMV) mRNA encoding for 4 different viral proteins was incubated with ribosomes in the presence and absence of IMD-019064 (FIG. 9a), IMD-026259, IMD-026260 (FIG. 9b), or cycloheximide (Chx, 10 μM) (positive control) and the formed proteins analyzed by SDS-PAGE.
Panels show representative SDS-PAGE protein gels. Vehicle-containing translation reactions (Veh) represent 100% translation efficacy, while Cycloheximide (Chx; 10 μg/ml) a known inhibitor of protein translation that was used as a positive control does show significant protein reduction.

Experiment [6] concerns HIF-1. The experiment is described as follows: HIF-1-dependent luciferase reporter gene activity in 293T cells under hypoxia. The format is cell-based, human. The protocol: A HIF-1-dependent luciferase reporter gene was transfected into 293T cells by transfection with Rotifect™ (Trademarked by Carl Roth GmbH; Karlsruhe, Germany) or alternatively into Jurkat T cells by electroporation. Both cell lines were transfected with a HIF-1-dependent reporter gene. The next day, cells were preincubated for 1 h with the indicated, submicromolar concentrations of the test compounds and then incubated for further 8 h under normoxic or hypoxic (1% O2) conditions. After that, cells were harvested followed by the analysis of luciferase activity in a luminometer.
A HIF-1-dependent luciferase reporter gene was transfected into 293T cells. The next morning, cells were pretreated for 1 h with the indicated concentrations of compounds, followed by induction of hypoxia (hypoxia chamber) for 8 h. Subsequently cells were harvested and lyzed. Luciferase activity in cell extracts was measured in a luminometer (Duo Lumat LB 9507, Berthold) by injecting 20 microliter of assay buffer to 20 microliter of extract. Light emission was measured for 10 s, relative light units are given.
After transfection of 293T cells with a HIF-1-dependent luciferase reporter gene, cells were further incubated under normoxic or hypoxic (8 h, 1% O2) conditions as shown in FIG. 4. Effectively blocking concentrations of the IMDs (250 nM each) were added either 1 hour prior to hypoxia or 2 and 4 hours after induction of hypoxia.
On the technique in general: Reporter assays use an easily measured gene product as a stand-in for the process of interest.

With `CNCCOc1ccc2c(c1)OC1(c3ccc(Cl)cc3)C(c3ccccc3)CC(O)C21O` (stereo not drawn) [IMD-026260, (1,3a,8b)-3a-(4-chlorophenyl)-6-(2-(methylamino)ethoxy)-3-phenyl-2,3,3a,8b-tetrahydro-1H-benzo[d]cyclopenta[b]furan-1,8b-diol], the pIC50 is 6.74 in experiment [1]; 7.55 in experiment [2] (Homo sapiens, HUVEC, VEGF-A 25 ng/ml, 24 h, read-out: IC50, VEGF-A induced sprouting of HUVEC spheroids); 7.89 in experiment [3] (Homo sapiens, HUVEC, Deferoxamine 100 μM, 24 hours, collagen matrix, read-out: IC50, hypoxia induced EC (HUVEC) sprouting); 7.74 in experiment [6] (Homo sapiens, HEK-293T, 1 h pretreatment, hypoxia 8 h, read-out: IC50, HIF-1 luciferase inhibitory activity). Further, the “inhibition of angiogenic sprouting in vitro (HUVEC sprouting)” value in experiment [2] (after hypoxic or VEGF induction, summary statement) is “potent inhibitors of angiogenic sprouting in vitro”. Also, the “difference in HUVEC and fibroblast sensitivity” value in experiment [3] (NHDF IC50 versus Deferoxamine-induced HUVEC IC50) is “greater than thirteen-fold”. Besides, the “block of HIF-1α protein accumulation” value in experiment [4] is “almost completely block”. In addition, in experiment [5], the “effect on in vitro protein translation” value is “No significant effect”. Besides, the “time-dependency of inhibition of HIF-1-dependent luciferase expression” value in experiment [6] (250 nM, added 4 hours after induction of hypoxia (8 h, 1% O2)) is on record as “able to inhibit HIF-1-dependent luciferase expression even when added 4 hours after hypoxic induction”.
